In patent US20240208986A1, “PHENYL AZEPINES AS RIPK1 INHIBITORS AND METHODS OF USE THEREOF” (Merck Sharp & Dohme LLC, priority 2021, published 2024):

target: RIPK1 (recombinant GST-RIPK1 kinase domain, residues 1-327) (Homo sapiens (Human), UniProt Q13546); assay: RIPK1-ADP-Glo Enzymatic Assay; type: biochemical; conditions: 25 nM GST-RIPK1, 300 μM ATP, 3 μM dephosphorylated-MBP; 30 minutes pre-incubation, 150 minutes reaction; ten-point titration
Description: The enzymatic activity of RIPK1 is measured using an assay derived from ADP-Glo kit (™Promega), which provides a luminescent-based ADP detection system. Specifically, the ADP generated by RIPK1 kinase is proportionally detected as luminescent signals in a homogenous fashion. In this context, the assessment of the inhibitory effect of small molecules (EC50) is measured by the effectiveness of the compounds to inhibit the ATP to ADP conversion by RIPK1.
In this assay, the potency (EC50) of each compound was determined from a ten-point (1:3 serial dilution; top compound concentration of 100000 nM) titration curve using the following outlined procedure. To each well of a white ProxiPlus 384 well-plate, 30 nL of compound (1% DMSO in final assay volume of 3 μL) was dispensed, followed by the addition of 2 μL of 1× assay buffer (25 mM Hepes 7.3, 20 mM MgCl2, 50 mM NaCl, 1 mM DTT, 0.005% Tween20, and 0.02% BSA) containing 37.5 nM of GST-RIPK1 (recombinant GST-RIPK1 kinase domain (residues 1-327) enzyme produced from baculovirus-transfected Sf21 cells: MW=62 kDa). Plates were placed in an ambient temperature humidified chamber for a 30 minutes pre-incubation with compound. Subsequently, each reaction was initiated by the addition of 1 μL 1× assay buffer containing 900 μM ATP and 3 μM dephosphorylated-MBP substrate. The final reaction in each well of 3 μL consists of 25 nM of GST-RIPK1, 300 μM ATP, and 3 μM dephosphorylated-MBP. Kinase reactions were allowed to proceed for 150 minutes prior to adding ADP-Glo reagents per Promega's outlined kit protocol. Dose-response curves were generated by plotting percent effect (% product conversion; Y-axis) vs. Log10 compound concentrations (X-axis). EC50 values were calculated using a non-linear regression, four-parameters sigmoidal dose-response model.

RIPK1 (recombinant GST-RIPK1 kinase domain, residues 1-327), sequence (Q13546 1-327): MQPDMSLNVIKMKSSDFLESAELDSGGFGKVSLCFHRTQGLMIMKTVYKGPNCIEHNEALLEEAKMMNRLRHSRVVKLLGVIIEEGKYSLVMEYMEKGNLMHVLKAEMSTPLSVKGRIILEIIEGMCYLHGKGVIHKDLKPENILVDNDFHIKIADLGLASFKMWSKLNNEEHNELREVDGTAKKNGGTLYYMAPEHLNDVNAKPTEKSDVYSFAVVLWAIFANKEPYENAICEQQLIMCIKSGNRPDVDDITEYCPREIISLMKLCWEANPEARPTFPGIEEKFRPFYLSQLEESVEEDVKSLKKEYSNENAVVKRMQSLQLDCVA

First: O=C(N1C[C@@H]2C[C@H]1c1ccccc1O2)C12CC(C1)C2 [Compound 1-38, (bicyclo[1.1.1]pentan-1-yl)[(2S,5S)-2,3-dihydro-2,5-methano-1,4-benzoxazepin-4(5H)-yl]methanone]
Second: CC12CC(C(=O)N3C[C@@H]4C[C@H]3c3ccccc3O4)(CO1)C2 [Compound 1-42, [(2S,5S)-2,3-dihydro-2,5-methano-1,4-benzoxazepin-4(5H)-yl](1-methyl-2-oxabicyclo[2.1.1]hexan-4-yl)methanone]
The IC50 of the first is 6.3-fold lower: 146 nM for the first, 922 nM for the second. The first is the more potent here.

Compared with `O=C(C1CCN(c2nccn3ncnc23)CC1)N1C[C@@H]2C[C@H]1c1ccccc1O2` [Compound 1-39, [(2S,5S)-2,3-dihydro-2,5-methano-1,4-benzoxazepin-4(5H)-yl][1-([1,2,4]triazolo[1,5-a]pyrazin-8-yl)piperidin-4-yl]methanone], `CC1(C(=O)N2C[C@@H]3C[C@H]2c2ccccc2O3)CCN(c2cc(C#N)ncn2)CC1` [Compound 1-48, 6-{4-[(2S,5S)-2,3-dihydro-2,5-methano-1,4-benzoxazepine-4(5H)-carbonyl]-4-methylpiperidin-1-yl}pyrimidine-4-carbonitrile] is 1.8-fold higher in IC50: 213 nM for the first, 375 nM for the second.

First: O=C(N1C[C@@H]2C[C@H]1c1ccccc1O2)C12CCC(F)(CC1)C2 [Compound 1-40, ((2S,5S)-2,3-dihydro-2,5-methanobenzo[f][1,4]oxaze-pin-4(5H)-yl)(4-fluorobicyclo[2.2.1]heptan-1-yl)methanone]
Second: O=C(N1C[C@@H]2C[C@H]1c1ccccc1O2)C12CCC(C(F)F)(CC1)C2 [Compound 1-41, (4-(difluoromethyl)bicyclo [2.2.1]heptan-1-yl)((2S,5S)-2,3-dihydro-2,5-methanobenzo[f][1,4]oxaze-pin-4(5H)-yl)methanone]
The IC50 of the first is 1.8-fold higher: 23 nM for the first, 13 nM for the second. The second is the more potent here.

First: O=C(N1C[C@@H]2C[C@H]1c1ccccc1O2)C12CCC(CC1)CC2 [Compound 1-43, (bicyclo[2.2.2]octan-1-yl)[(2S,5S)-2,3-dihydro-2,5-methano-1,4-benzoxazepin-4(5H)-yl]methanone]
Second: N#CC12CCC(C(=O)N3C[C@@H]4C[C@H]3c3ccccc3O4)(CC1)CC2 [Compound 1-47, 4-[(2S,5S)-2,3-dihydro-2,5-methano-1,4-benzoxazepine-4(5H)-carbonyl]bicyclo[2.2.2] octane-1-carbonitrile]
The IC50 of the first is 16-fold lower: 18 nM for the first, 281 nM for the second. The first is the more potent here.

Compared with `O=C(N1C[C@@H]2C[C@H]1c1ccccc1O2)C12CCC(C(F)(F)F)(CC1)C2` [Compound 1-44, [(2S,5S)-2,3-dihydro-2,5-methano-1,4-benzoxazepin-4(5H)-yl][4-(trifluoromethyl)bicyclo [2.2.1]heptan-1-yl]methanone], `O=C(N1C[C@@H]2C[C@H]1c1ccccc1O2)C12CCC(C(F)(F)F)(CC1)CC2` [Compound 1-53, [(2S,5S)-2,3-dihydro-2,5-methano-1,4-benzoxazepin-4(5H)-yl][4-(trifluoromethyl)bicyclo [2.2.2]octan-1-yl]methanone] is 30-fold higher in IC50: 17 nM for the first, 510 nM for the second.

`CC1(C)C2CCC1(C(=O)N1C[C@@H]3C[C@H]1c1ccccc1O3)CC2` [Compound 1-45, [(2S,5S)-2,3-dihydro-2,5-methano-1,4-benzoxazepin-4(5H)-yl](7,7-dimethylbicyclo[2.2.1]heptan-1-yl)methanone] and `COC12CCC(C(=O)N3C[C@@H]4C[C@H]3c3ccccc3O4)(CC1)C2` [Compound 1-46, [(2S,5S)-2,3-dihydro-2,5-methano-1,4-benzoxazepin-4(5H)-yl](4-methoxybicyclo[2.2.1]heptan-1-yl)methanone] are within 1.5-fold of each other in IC50: 168 nM for the first, 117 nM for the second.

First: N#Cc1cc(N2CCC(F)(C(=O)N3C[C@@H]4C[C@H]3c3ccccc3O4)CC2)ncn1 [Compound 1-49, 6-{4-[(2S,5S)-2,3-dihydro-2,5-methano-1,4-benzoxazepine-4(5H)-carbonyl]-4-fluoropiperidin-1-yl}pyrimidine-4-carbonitrile]
Second: O=C(N1C[C@@H]2C[C@H]1c1ccccc1O2)C12CC(C(F)F)(C1)C2 [Compound 1-60, [3-(difluoromethyl)bicyclo [1.1.1]pentan-1-yl][(2S,5S)-2,3-dihydro-2,5-methano-1,4-benzoxazepin-4(5H)-yl]methanone]
The IC50 of the first is 4.4-fold lower: 117 nM for the first, 512 nM for the second. The first is the more potent here.

Compared with `O=C(N1C[C@@H]2C[C@H]1c1ccccc1O2)C12CCC(c3ccccc3)(CC1)CC2` [Compound 1-51, [(2S,5S)-2,3-dihydro-2,5-methano-1,4-benzoxazepin-4(5H)-yl](4-phenylbicyclo[2.2.2]octan-1-yl)methanone], `O=C(N1C[C@@H]2C[C@H]1c1ccccc1O2)C12CCC(C(F)F)(CC1)CC2` [Compound 1-54, [4-(difluoromethyl)bicyclo [2.2.2]octan-1-yl][(2S,5S)-2,3-dihydro-2,5-methano-1,4-benzoxazepin-4(5H)-yl]methanone] is 2.7-fold lower in IC50: 723 nM for the first, 263 nM for the second. The second is the more potent here.

Going from `O=C(N1C[C@@H]2C[C@H]1c1ccccc1O2)C12CC(C(F)(F)F)(C1)C2` [Compound 1-52, [(2S,5S)-2,3-dihydro-2,5-methano-1,4-benzoxazepin-4(5H)-yl][3-(trifluoromethyl)bicyclo [1.1.1]pentan-1-yl]methanone] to `COC(=O)C12CCC(C(=O)N3C[C@@H]4C[C@H]3c3ccccc3O4)(CC1)C2` [Compound 1-55, methyl 4-[(2S,5S)-2,3-dihydro-2,5-methano-1,4-benzoxazepine-4(5H)-carbonyl]bicyclo[2.2.1] heptane-1-carboxylate], the IC50 falls from 199 nM to 43 nM (4.6-fold). The second is the more potent here.

Going from `CC(C)(CC#N)C(=O)N1C[C@@H]2C[C@H]1c1ccccc1O2` [Compound 1-57, 4-[(2S,5S)-2,3-dihydro-2,5-methano-1,4-benzoxazepin-4(5H)-yl]-3,3-dimethyl-4-oxobutanenitrile] to `CC(C)(C#N)C(=O)N1C[C@@H]2C[C@H]1c1ccccc1O2` [Compound 1-59, 3-[(2S,5S)-2,3-dihydro-2,5-methano-1,4-benzoxazepin-4(5H)-yl]-2,2-dimethyl-3-oxopropanenitrile], the IC50 rises from 56 nM to 159 nM (2.8-fold). The first is the more potent here.

First: COc1ccc(CC(C)(C)C(=O)N2C[C@@H]3C[C@H]2c2ccccc2O3)cc1 [Compound 1-58, 1-[(2S,5S)-2,3-dihydro-2,5-methano-1,4-benzoxazepin-4(5H)-yl]-3-(4-methoxyphenyl)-2,2-dimethylpropan-1-one]
Second: CC(C)(C)C(=O)N1C[C@@H]2C[C@H]1c1cc(F)ccc1O2 [Compound 2-5, 1-[(2S,5S)-7-fluoro-2,3-dihydro-2,5-methano-1,4-benzoxazepin-4(5H)-yl]-2,2-dimethylpropan-1-one]
The IC50 of the first is 26-fold higher: 887 nM for the first, 34 nM for the second. The second is the more potent here.

Compared with `CC(C)(C(=O)N1C[C@@H]2C[C@H]1c1cc(Cl)ccc1O2)C(F)F` [Compound 2-1, 1-[(2S,5S)-7-chloro-2,3-dihydro-2,5-methano-1,4-benzoxazepin-4(5H)-yl]-3,3-difluoro-2,2-dimethylpropan-1-one], `Cc1ccc2c(c1)[C@@H]1C[C@@H](CN1C(=O)C(C)(C)C(F)F)O2` [Compound 2-3, 3,3-difluoro-2,2-dimethyl-1-[(2S,5S)-7-methyl-2,3-dihydro-2,5-methano-1,4-benzoxazepin-4(5H)-yl]propan-1-one] is 2.3-fold higher in IC50: 61 nM for the first, 143 nM for the second.

Going from `CC(C)(C(=O)N1C[C@@H]2C[C@H]1c1cc(C#N)ccc1O2)C(F)F` [Compound 2-2, (2S,5S)-4-(3,3-difluoro-2,2-dimethylpropanoyl)-2,3,4,5-tetrahydro-2,5-methano-1,4-benzoxazepine-7-carbonitrile] to `CC(C)(C(=O)N1C[C@@H]2C[C@H]1c1cc(F)ccc1O2)C(F)F` [Compound 2-7, 3,3-difluoro-1-[(2S,5S)-7-fluoro-2,3-dihydro-2,5-methano-1,4-benzoxazepin-4(5H)-yl]-2,2-dimethylpropan-1-one], the IC50 falls from 158 nM to 25 nM (6.3-fold).

`CC(C)(C)C(=O)N1C[C@@H]2C[C@H]1c1cc(F)cc(F)c1O2` [Compound 2-4, 1-[(2S,5S)-7,9-difluoro-2,3-dihydro-2,5-methano-1,4-benzoxazepin-4(5H)-yl]-2,2-dimethylpropan-1-one] and `CC(C)(C)C(=O)N1C[C@@H]2C[C@H]1c1cccc(F)c1O2` [Compound 2-6, 1-[(2S,5S)-9-fluoro-2,3-dihydro-2,5-methano-1,4-benzoxazepin-4(5H)-yl]-2,2-dimethylpropan-1-one] are within 1.5-fold of each other in IC50: 60 nM for the first, 43 nM for the second.

First: CC(C)(C(=O)N1C[C@@H]2C[C@H]1c1cccc(F)c1O2)C(F)F [Compound 2-8, 3,3-difluoro-1-[(2S,5S)-9-fluoro-2,3-dihydro-2,5-methano-1,4-benzoxazepin-4(5H)-yl]-2,2-dimethylpropan-1-one]
Second: CC1(C(=O)N2C[C@@H]3C[C@H]2c2cccc(F)c2O3)CCC1 [Compound 2-10, [(2S,5S)-9-fluoro-2,3-dihydro-2,5-methano-1,4-benzoxazepin-4(5H)-yl](1-methylcyclobutyl)methanone]
The IC50 of the first is 1.5-fold lower: 20 nM for the first, 30 nM for the second.

In the case of `CC1(C(=O)N2C[C@@H]3C[C@H]2c2cc(F)ccc2O3)CCC1` [Compound 2-9, [(2S,5S)-7-fluoro-2,3-dihydro-2,5-methano-1,4-benzoxazepin-4(5H)-yl](1-methylcyclobutyl)methanone], the IC50 is reported as 63 nM.
